According to patent publication US11827690B2, “ApoC-II mimetic peptides” (THE UNITED STATES OF AMERICA, as represented by the …, priority 2017, dated 2023):

Tests used:
LPL = biological target: T1, LPL (Bos taurus, UniProt P11151); test: addition of exogenous LPL to serum samples collected after IP injection with Intralipid; type: biochemical
T1 sequence (P11151 29-478): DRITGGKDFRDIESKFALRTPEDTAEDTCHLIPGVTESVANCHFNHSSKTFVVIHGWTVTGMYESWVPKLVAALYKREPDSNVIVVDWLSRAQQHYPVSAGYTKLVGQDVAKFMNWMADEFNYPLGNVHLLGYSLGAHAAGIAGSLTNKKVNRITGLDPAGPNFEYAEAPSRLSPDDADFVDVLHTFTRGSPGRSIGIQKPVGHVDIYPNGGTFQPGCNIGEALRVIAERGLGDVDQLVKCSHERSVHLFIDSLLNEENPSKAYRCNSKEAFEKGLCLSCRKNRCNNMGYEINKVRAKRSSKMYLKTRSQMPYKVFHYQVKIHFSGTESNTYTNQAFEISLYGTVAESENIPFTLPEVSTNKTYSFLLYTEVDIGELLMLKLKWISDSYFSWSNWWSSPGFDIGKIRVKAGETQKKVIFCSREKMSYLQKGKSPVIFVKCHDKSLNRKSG

bovine LPL = biological target: T2, bovine LPL (Bos taurus, UniProt P11151); test: in vitro LPL assay using hypertriglyceridemia patient sera as substrate; type: biochemical; conditions: patient sera TG about 1000 mg/dL to about 1700 mg/dL, FIGS. 15A-D
T2 sequence (P11151 29-478): T1 sequence (P11151 29-478)
Summary of the method: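 Bovine LPL (diluted stock) added to Intralipid or human or mouse plasma with BSA and peptides in triplicate, held 30 min on ice, then incubated 1 hour at 37° C. Released free fatty acids measured by colorimetric NEFA assay at 550/660 nm against an oleic acid standard.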

apoC-II knockout mice = test: serum TG of apoC-II knockout mice after Intralipid injection; type: in vivo; conditions: peptide IP 1 hour after Intralipid, 5 and 10 μmole/kg, FIG. 37B
Protocol: C57Bl/6 mice (wild-type), apoC-II knockout (apoC-II KO) mice, and apoC-III transgenic mice were used for in vivo study. The C57Bl/6 mice (wild-type) were purchased from Taconic Biosciences Inc. The apoC-II KO mice were created as described in Sakurai et al., J Pharmacol Exp Ther 356:341-353, 2016. The apoC-III transgenic mice were generated by overexpressing human apoC-III in C57Bl/6 mice. See Qu et al., J. Lipid Res. 48:1476-1487, 2007.
Mice were fasted overnight (approximately 12 hours) before the study and 6 hours during the study, the next day. The apoC-II mimetic peptides were synthetically produced and free of biological contamination (not available as FDA approved compounds/treatment). Peptides were produced and used in sterile conditions and filtered by 0.2 nm filter before injections in a single dose 1-10 μmol/kg body weight (B. W.) administered either subcutaneous injection (S.Q. or S.C.), intraperitoneal injection (I.P.) or intravenous injection (I.V.) (in a sterile, pharmaceutical grade PBS solution at a volume ≤200 μL) as described in Sakurai et al., J Pharmacol Exp Ther 356:341-353, 2016. […]

[1] = test system: obese monkeys with a plasma TG level of greater than 2 mmol/L; test: in vivo studies in the obese monkey model
Protocol: Monkeys with a TG level greater than 2 mmol/L were selected, trained and assigned into 3 groups (control, 1 mg/kg Delta6PV, and 5 mg/kg Delta6PV). The desired dose was injected intravenously into the animals at 0 h time point. The monkeys were monitored over the course of 72 hours and blood samples at different time points were collected for biomarker analysis.

For “DWLKAFYDKVAEKLKEAFPAMSTYTGIFTDQVLSVLKGEE (listed as Homo sapiens) [apoC-II-a, excluded from the claimed peptides]”, the “lipoprotein particles from treated mice as substrates for LPL” value (LPL) was “better substrates for LPL”.
With “DYLKEVFEKLRDLYEKFTPAVSTYTGIFTDQVLSVLKGEE [Delta6PV]” the LPL activation (bovine LPL) was “activated LPL in vitro”, the “serum TG increase after Intralipid injection” value (apoC-II knockout mice) was “the TG increase was significantly reduced” and the “dose dependence of effect” value ([1]; 1 and 5 mg/kg intravenous) was “dose-dependent”. For the same sequence, the VLDL level ([1]; FIG. 48A) was “marked reduction of the VLDL level”, the LDL level ([1]; FIG. 48B) was “did not change significantly” and the HDL level ([1]; FIG. 48C) was “did not change significantly”. For the same sequence, the “plasma TG level” value ([1]; single intravenous injection, 1 and 5 mg/kg, 24 h, 48 h, and 72 h after the injection) was “significant reduction of plasma TG level”.
